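96-well plates; 48 h exposure; 5 concentrations. Endpoints by linear interpolation between flanking doses. Not reached: highest tested concentration assigned. GI50 marks 50% less growth. At the TGI there is no net growth.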
Assays:
Experiment in all cases: DTP human tumour cell line panel, 48 h
RPMI-8226 leukemia = test system: RPMI-8226 leukemia
KM12 colon = test system: KM12 colon
SK-MEL-5 melanoma = test system: SK-MEL-5 melanoma
OVCAR-4 ovarian = test system: OVCAR-4 ovarian
SF-268 CNS = test system: SF-268 CNS
SK-MEL-2 melanoma = test system: SK-MEL-2 melanoma
UO-31 renal = test system: UO-31 renal
MDA-MB-435 = test system: MDA-MB-435
SW-620 colon = test system: SW-620 colon
NCI-H460 lung = test system: NCI-H460 lung

Row | Compound | GI50 (RPMI-8226 leukemia) | TGI (RPMI-8226 leukemia) | GI50 (KM12 colon) | TGI (KM12 colon) | GI50 (SK-MEL-5 melanoma) | TGI (SK-MEL-5 melanoma) | GI50 (OVCAR-4 ovarian) | TGI (OVCAR-4 ovarian) | GI50 (SF-268 CNS) | TGI (SF-268 CNS) | GI50 (SK-MEL-2 melanoma) | TGI (SK-MEL-2 melanoma) | GI50 (UO-31 renal) | TGI (UO-31 renal) | GI50 (MDA-MB-435) | TGI (MDA-MB-435) | GI50 (SW-620 colon) | TGI (SW-620 colon) | GI50 (NCI-H460 lung) | TGI (NCI-H460 lung)
1 | COc1cnc2c(c1)C(=O)c1c-2n(CCCN2CCN(C)CC2)c(=O)c2cc(Cl)ccc12 | 13.9 µM | 45.1 µM | 3.37 µM | 20.5 µM | 11 µM | 25.2 µM | 2.19 µM | 18.1 µM | 4.75 µM | 29.1 µM | 5.29 µM | 23.2 µM | 3.74 µM | 22.8 µM | 1.53 µM | 3.14 µM | 0.299 µM | 12.8 µM | 0.377 µM | 13.8 µM
2 | CO[C@H](C(=O)N[C@@H](CCCCNC(=O)OCc1ccccc1)C(=O)OC(C)(C)C)[C@@H]1Cc2cc3cc(OC4CC(OC5CC(O)C(O)C(C)O5)C(O)C(C)O4)c(C)c(O)c3c(O)c2C(=O)[C@H]1OC1CC(OC2CC(OC3CC(C)(O)C(O)C(C)O3)C(O)C(C)O2)C(O)C(C)O1 (stereo not given in full) | 0.487 µM | 3.65 µM | 0.603 µM | 2.05 µM | 0.432 µM | 1.59 µM | 3 µM | > 10 µM | 0.624 µM | 2.03 µM | 0.942 µM | 3.29 µM | 1.57 µM | 8.18 µM | 0.805 µM | 2.28 µM | 0.441 µM | 3.34 µM | 0.364 µM | 1.49 µM
3 | Cn1cc(C2=C(c3c4n(c5ccccc35)CCC(CN)CC4)C(=O)NC2=O)c2ccccc21 (stereo not given) | 4.41 µM | 10.8 µM | 3.88 µM | 7.39 µM | 3.99 µM | 7.59 µM | 1.96 µM | 7.51 µM | 4.02 µM | 7.7 µM | 4.02 µM | 8.25 µM | 4.07 µM | 7.91 µM | 3.35 µM | 6.76 µM | 3.87 µM | 7.9 µM | 4.21 µM | 8.19 µM
4 | CN1CCN(Cc2ccc(NC(=O)c3cncc(C#Cc4c(N)ncc5cc(F)ccc45)c3)cc2C(F)(F)F)CC1 | 1.09 µM | 2.83 µM | 0.0172 µM | 0.738 µM | 0.794 µM | 1.52 µM | 0.489 µM | 1.38 µM | 0.884 µM | 1.9 µM | 1.44 µM | 6.14 µM | 1.44 µM | 5.06 µM | 0.532 µM | 1.15 µM | 0.529 µM | 1.4 µM | 0.904 µM | 1.9 µM
5 | O=C1/C(=C/c2ccc(Cl)cc2)CN(C(=O)C(Cl)Cl)C/C1=C\c1ccc(Cl)cc1 | 0.0302 µM | 0.169 µM | 0.0912 µM | 0.273 µM | 0.231 µM | 0.58 µM | 0.283 µM | 1.32 µM | 0.315 µM | 1.48 µM | 1.18 µM | 3.07 µM | 0.156 µM | 0.3 µM | 0.194 µM | 0.396 µM | 0.04 µM | 0.231 µM | 0.274 µM | 0.822 µM
6 | CC(C)=CCC/C(C)=C/CC/C(=C/COP(=O)(OCc1ccc([N+](=O)[O-])o1)N(C)CCCCCl)C(C)(C)C (stereo not given) | 1.45 µM | 12.3 µM | 3.63 µM | 14.9 µM | 3.29 µM | 11.4 µM | 11.8 µM | 33.1 µM | 3.69 µM | 19.3 µM | 2.73 µM | 11.4 µM | > 23.3 µM | > 44.1 µM | 10.1 µM | 30.8 µM | 3.07 µM | 8.57 µM | 5 µM | 11.5 µM

From PubChem BioAssay (NCI)
